These results are taken from patent publication US20090124634A1, “Novel dipodazine compounds and applications” (Viogard AB, priority 2005, published 2009).

In one data set the test system is M. edulis. In words: Field experiment, paint-coated panels in sea water: recruitment of M. edulis. The class given is in vivo, Mytilus edulis. The text has this:
(§1) The effects of barettin and 8,9-Dihydrobarettin on B. improvisus recruitment was studied, by formulating different paints with different concentrations of the active substances.
(§2) The paints were commercially available paints and the four different paints are listed below:
Also, the effects of barettin and 8,9-dihydrobarettin on M. edulis recruitment were studied. When analyzing the data on the recruitment of M. edulis in the present field experiment, in a 3-factor analysis of variance with substance, paint and concentration as fixed factors, there was a significant interaction between the factors substance and paint. The main contribution to the significant interaction between the factors substance and paint is the result of barettin in combination with the SPF paint. […] However, the SNK-test could not reveal any significant differences between data.

The subject of a further data set is B. improvisus. In words: Field experiment, paint-coated panels in sea water: recruitment/settlement of B. improvisus. The class given is in vivo, Balanus improvisus. Conditions: for Reduction of recruitment (%): B. improvisus; for reduction of settlement of B. Improvisus: panels eight weeks in sea water, 0.2-1.5 m depth (FIG. 1).
From the text: as §1, §2
One compound according to the present invention, benzo[g]dipodazine, which is the at present preferred compound, was formulated in a commercially available paint (SPF, from Lotréc, Lidingö, Sweden). The concentration of benzo[g]dipodazine in the paint was 0.1% and 0.01% based on the weight of the paint.
The paint was coated on panels in the same way as described above in Example 1 (comparative example). A control panel was coated with the same paint without benzo[g]dipodazine. All panels were immersed in sea water at a depth of 0.2-1.5 m, and maintained in the water for eight weeks.

For data set [1], the system named is cyprids larvae of B. improvisus. Particulars: B. improvisus cypris larvae, from ref [27], cited from earlier work; for EC50: read-out: EC50, inhibition of settlement of cypris larvae.
Data set [2] has the same test system. The data set is described as follows: Larval settlement assay (barnacle cyprids in dishes), incl. reversibility test. Format: in vivo, Balanus improvisus. The method, then: Barnacle cyprids larvae of B. improvisus was reared in the laboratory as described in [2]. The settlement propensity and mortality of barnacle cyprids were used to evaluate the bioactive effect of barettin and analogues. Stock solutions of all compounds shown in FIG. 4 were prepared by dissolving the compounds in dimethylsulfoxide (DMSO). The stock solutions were further diluted in filtered seawater (FSW, Millipore 0.2 μm) to yield the desired concentrations of 1×10^−4, 1×10^−3 and 1×10^−2 mg ml^−1. The settlement assays were performed using Petri dishes of untreated polystyrene (Nunc no 240045, Ø 48 mm) containing 10 ml of FSW to which 20±5 cyprids were added. Cyprids were used on their first or second day after moulting. Each treatment with a specific analogue was replicated 4 times and dishes with FSW only or FSW containing DMSO (0.1%) served as controls. Dishes were maintained for 3-4 days at room temperature (21±2° C.) in the prevailing light:dark cycle of 9:15 h. The effects of the different analogues, classified as either neutral, stimulatory or inhibitory, on the cyprids, were determined by examining the dishes under a stereo microscope and checking for 1) attached and metamorphosed individuals, 2) non-metamorphosed, alive, non-attached cyprids and 3) dead cyprids. Each substance was tested at least in two independent experimental series. […]

Where [3] appears, read: FabiEco paint, 0.01% in paint, listed as 8,9-dihydro-barettin.
Where [4] appears, read: FabiEco paint, 0.1% in paint, listed as 8,9-dihydro-barettin.
Where [5] appears, read: SPF paint, 0.01% in paint, 8-week period.
Where [6] appears, read: SPF paint, 0.1% in paint, 8-week period.
[7] abbreviates: SPF paint, 0.01% in paint, vs control panels.
Setting [8] is: SPF paint, 0.1% in paint, vs control panels.

Marks after values point to notes of the source that are not given here.

Turning to `N=C(N)NCCC[C@@H]1NC(=O)[C@H](Cc2c[nH]c3cc(Br)ccc23)NC1=O` [8,9-dihydrobarettin], the “Reduction of recruitment (%)” value in the data set on M. edulis (FabiEco paint, 0.01% in paint) is on record as 50%; with M. edulis (setting [3]), 50* %; with M. edulis (FabiEco paint, 0.1% in paint), 67%; with M. edulis (setting [4]), 67** %; in the data set on M. edulis (H2000 paint, 0.01% in paint), 53%; with M. edulis (H2000 paint, 0.01% in paint, listed as 8,9-dihydro-barettin), 53* %. Moreover, the “Reduction of recruitment (%)” value in the data set on M. edulis (H2000 paint, 0.1% in paint) is listed as 39%; in the data set on M. edulis (setting [5]) it was 52%; in the data set with M. edulis (setting [6]) it was 72%; with M. edulis (SPF paint, 0.1% in paint, 8-week period, listed as 8,9-dihydro-barettin) it was 72** %; in the data set on M. edulis (TF paint, 0.01% in paint) it was −28%; with M. edulis (TF paint, 0.1% in paint) it was 3.8%. In addition, the “Reduction of recruitment (%)” value is reported as 59% with B. improvisus (FabiEco paint, 0.01% in paint); 59* % in the data set with B. improvisus (setting [3]); 69% with B. improvisus (FabiEco paint, 0.1% in paint); 69*** % with B. improvisus (setting [4]); 46% with B. improvisus (H2000 paint, 0.01% in paint); 20% with B. improvisus (H2000 paint, 0.1% in paint). Moreover, the “Reduction of recruitment (%)” value is listed as 43% in the data set on B. improvisus (setting [7]); 61% in the data set with B. improvisus (setting [8]); 61** % in the data set with B. improvisus (SPF paint, 0.1% in paint, vs control panels, listed as 8,9-dihydro-barettin); −10% in the data set on B. improvisus (TF paint, 0.01% in paint); −1% in the data set on B. improvisus (TF paint, 0.1% in paint). Besides, in data set [1], the “effect on larval mortality” value is reported as “none of the compounds displayed any significant effect on larval mortality”. For the same compound, the EC50 in data set [1] was 7.9 µM.
Turning to `N=C(N)NCCC[C@@H]1NC(=O)/C(=C/c2c[nH]c3cc(Br)ccc23)NC1=O` [barettin], the “Reduction of recruitment (%)” value in the data set with M. edulis (FabiEco paint, 0.01% in paint) stood at 51%; in the data set with M. edulis (FabiEco paint, 0.1% in paint), 47%; in the data set with M. edulis (H2000 paint, 0.01% in paint), 26%; in the data set with M. edulis (H2000 paint, 0.1% in paint), 12%; in the data set with M. edulis (setting [5]) it was 83%; in the data set on M. edulis (setting [6]) it was 81%. Also, the “Reduction of recruitment (%)” value in the data set with M. edulis (TF paint, 0.01% in paint) is 51* %; in the data set on M. edulis (TF paint, 0.01% in paint, listed as Barettin), 51%; with M. edulis (TF paint, 0.1% in paint) it was 6%; with B. improvisus (FabiEco paint, 0.01% in paint) it was 45%; in the data set with B. improvisus (FabiEco paint, 0.1% in paint) it was 49%; with B. improvisus (H2000 paint, 0.01% in paint), 28%. Also, the “Reduction of recruitment (%)” value is 23% in the data set with B. improvisus (H2000 paint, 0.1% in paint); 67% in the data set on B. improvisus (setting [7]); 89% with B. improvisus (setting [8]); 25% with B. improvisus (TF paint, 0.01% in paint); 17% in the data set on B. improvisus (TF paint, 0.1% in paint). The “effect on larval mortality” value in data set [1] is given as “none of the compounds displayed any significant effect on larval mortality”. The EC50 in data set [1] was 0.9 µM.
`O=C1CNC(=O)/C(=C/c2c[nH]c3c2ccc2ccccc23)N1` [benzo[g]dipodazine]: in data set [2] (34 μM in dishes (FIG. 2A)), the “inhibition of settlement of cyprids” value is “complete inhibition”. In addition, the “reversibility: ability of cyprids to settle again in fresh seawater after exposure” value in data set [2] (totally inhibited cyprids transferred to fresh sea water (FSW) (FIG. 2B)) is given as “regained this capability when transferred to fresh sea water”. The “reduction of settlement of B. Improvisus” value was “about 73%” in the data set with B. improvisus (SPF paint, 0.01% by weight of paint) and “about 85%” in the data set on B. improvisus (SPF paint, 0.1% by weight of paint).
`O=C1CNC(=O)C(=Cc2cc3ccccc3s2)N1` [compound 12, 3-[1-benzothiophen-2-yl-methylidene]-piperazine-2,5-dione] had a melting point of 258 °C.
